Assay results published in patent US8933228B2, “Respiratory formulations and compounds for use therein” (Respivert, Ltd., priority 2010, dated 2015).

Experiments:
cSrc enzyme = cSrc enzyme (Homo sapiens (Human), UniProt P12931); test: c-SRC enzyme inhibition assay (FRET, Z'-LYTE); assay type: biochemical; conditions: read-out: Enzyme Profile: IC50 Values cSrc
p38 MAPK γ (MAPK12) = p38 MAPK γ (MAPK12) (Homo sapiens (Human), UniProt P53778); test: Enzyme inhibition assay (FRET, Z-LYTE), p38 MAPK gamma; assay type: biochemical; conditions: read-out: Enzyme Profile: IC50 Values p38γ
Procedure: (§1) The enzyme inhibitory activity of test compounds was determined by fluorescence resonance energy transfer (FRET) using synthetic peptides labelled with both donor and acceptor fluorophores (Z-LYTE, Invitrogen). Recombinant, phosphorylated p38 MAPK γ (MAPK12:Millipore) was diluted in HEPES buffer, mixed with compound at the desired final concentrations and incubated for 2 hr at RT. The FRET peptide (2 μM) and ATP (100 μM) were next added to the enzyme/compound mixture and incubated for 1 hr. Development reagent (protease) was added for 1 hr prior to detection in a fluorescence microplate reader. The site-specific protease only cleaves non-phosphorylated peptide and eliminates the FRET signal. Phosphorylation levels of each reaction were calculated using the ratio of coumarin emission (donor) over fluorescein emission (acceptor) with high ratios indicating high phosphorylation levels and low ratios indicating low phosphorylation levels.

HCK enzyme = HCK enzyme (Homo sapiens (Human), UniProt P08631); test: HCK enzyme inhibition assay (FRET, Z'-LYTE); assay type: biochemical; conditions: read-out: Enzyme Profile: IC50 Values HCK
[1] = test system: IL-8 release in d-U937 cells; test: LPS-induced IL-8 release in d-U937 cells; assay type: cell-based; conditions: Homo sapiens, dU937; d-U937 cells, LPS 0.1 μg/mL, 4 hr; read-out: d-U937 (LPS) IL-8 IC50
Procedure: (§2) U937 cells, a human monocytic cell line, were differentiated to macrophage-type cells by incubation with phorbol myristate acetate (PMA; 100 ng/mL) for 48 to 72 hr, whereupon the cells become adherent. […] Coli: O111:B4, Sigma) for 4 hr. The supernatant was collected for determination of TNFα and IL-8 concentrations by sandwich ELISA (Duo-set, R&D systems). […] The relative 50% effective concentration (REC50) was determined from the resultant concentration-response curve. The inhibition of IL-8 production was calculated at each concentration of test compound by comparison with vehicle control.

p38 MAPK alpha (MAPK14) = p38 MAPK alpha (MAPK14) (Homo sapiens (Human), UniProt Q16539); test: Enzyme inhibition assay (FRET, Z-LYTE), p38 MAPK alpha via MAPKAP-K2 activation; assay type: biochemical; conditions: read-out: Enzyme Profile: IC50 Values p38α
Procedure: as §1
For p38 MAPK alpha (MAPK14: Invitrogen), enzyme activity was evaluated indirectly by determining activation/phosphorylation of the down-stream molecule, MAPKAP-K2. The p38 MAPK a protein was mixed with compound for 2 hr at RT. […] Development reagent was then added and the mixture incubated for 1 hr before detection by fluorescence completed the assay protocol.
The enzyme inhibitory activity of compound was determined by fluorescence resonance energy transfer (FRET) using synthetic peptides labelled with both donor and acceptor fluorophores (Z′-LYTE, Invitrogen).

[2] = test system: TNFα release in THP-1 cells; test: LPS-induced TNFα release in THP-1 cells; assay type: cell-based; conditions: Homo sapiens; THP-1 cells, LPS 3 μg/mL, 4 hr; read-out: THP1 (LPS) TNFα IC50
Procedure: The inhibition of TNFα production was calculated at each concentration by comparison with vehicle control.

[3] = test system: ICAM-1 expression in BEAS2B cells; test: Poly I:C-induced ICAM-1 induction in BEAS2B cells; assay type: cell-based; conditions: Homo sapiens, BEAS-2B; BEAS2B cells, poly I:C 1 μg/mL, 18 hr; read-out: BEAS2B (polyIC) ICAM1 IC50
Procedure: Poly I:C (1 μg/mL) (Invivogene Ltd., San Diego, Calif.) was transfected into BEAS2B cells (human bronchial epithelial cells, ATCC) with Oligofectamine (Invitrogen, Carlsbad, Calif.). Cells were pre-incubated with final concentrations of test compounds for 2 hr and the level of ICAM1 expression on the cell surface was determined by cell-based ELISA. […] The cells were washed with PBS-Tween and incubated with the secondary antibody (HRP-conjugated anti-rabbit IgG, Dako Ltd., Glostrup, Denmark).

HRV16 = test: Rhinovirus-titre assay; assay type: cell-based, human rhinovirus; conditions: HRV16; for inhibition at 0.04 µg/mL: Human rhinovirus sp., cell not marked b, test compounds 0.04 μg/mL per method (footnote b, 0.2 μg/mL), read-out: HRV titre (inhibitory %): % inhibition observed vs. HRV16 infection control; for NBEC (HRV) HRV titre Relative anti-viral activity: at 0.04 μg/mL vs. pleconaril at 0.1 μg/mL
Procedure: MRC5 cells (human lung fibroblast, ATCC) were infected with 1 MOI (multiplicity of infection of 1.0) of HRV16 and incubated for 1 hr at 33° C. with gentle shaking to stimulate adsorption. The cells were then washed with PBS, fresh media was added and the cells were incubated for a further 96 hr. The supernatant was collected and 10-fold serial dilutions of virus containing supernatant were prepared. All titrations were performed by infecting confluent Hela cell monolayers with serially diluted supernatant (10^−1-10^−5) and assessing the cytopathic effect by visual inspection 4 days after infection. The amount of virus required to infect 50% of Hela cells was calculated in each treatment as TCID50. Test compounds (0.04 μg/mL) were added 2 hr before HRV infection and 1 hr after infection when non-infected HRV was washed out. The anti-HRV activity of each test compound was determined as the difference of the log TCID50 of HRV16 in the presence of the compound with the log TCID50 of HRV16 in the absence of compound. […]

[4] = test system: Differentiated U937 cells; test: MTT assay: cell viability; assay type: cell-based, human; conditions: 1 μg/ml; for d-U937 MTT Assay 4 h: 5% FCS; for d-U937 MTT Assay 24 h: 10% FCS
Procedure: Differentiated U937 cells were pre-incubated with each test compound under two protocols: the first for 4 hr in 5% FCS and the second in 10% FCS for 24 h. The supernatant was replaced with 200 μL of new media and 10 μL of MTT stock solution (5 mg/mL) was added to each well. After incubation for 1 hr the media were removed, 200 μL of DMSO was added to each well and the plates were shaken lightly for 1 hr prior to reading the absorbance at 550 nm. The percentage loss of cell viability was calculated for each well relative to vehicle (0.5% DMSO) treatment. Consequently an apparent increase in cell viability for drug treatment relative to vehicle is tabulated as a negative percentage.

[5] = test system: TNFα release in d-U937 cells; test: LPS-induced TNFα release in d-U937 cells; assay type: cell-based; conditions: Homo sapiens, dU937, LPS 0.1 μg/mL, 4 hr, relative to 10 μg/mL BIRB796, read-out: d-U937 (LPS) TNFα REC50
Procedure: as §2

Row | SMILES | IC50 (cSrc enzyme) [nM] | IC50 (p38 MAPK γ (MAPK12)) [nM] | IC50 (HCK enzyme) [nM] | IC50 [1] [nM] | IC50 (p38 MAPK alpha (MAPK14)) [nM] | IC50 [2] [nM] | IC50 [3] [nM] | inhibition at 0.04 µg/mL (HRV16) [%] | d-U937 MTT Assay 4 h [4] | d-U937 MTT Assay 24 h [4] | EC50 [5] [nM] | NBEC (HRV) HRV titre Relative anti-viral activity (HRV16)
1 | COc1cc(-n2nc(C(C)(C)C)cc2NC(=O)Nc2ccc(Oc3ccnc4[nH]c(=O)cnc34)c3ccccc23)ccc1CO [Example 18, 1-(3-(tert-Butyl)-1-(4-(hydroxymethyl)-3-methoxyphenyl)-1H-pyrazol-5-yl)-3-(4-((3-oxo-3,4-dihydropyrido[2,3-b]pyrazin-8-yl)oxy)naphthalen-1-yl)urea] | 6 | 24 | 5 | 7.4 | 5 | 17 | 15 | 80 | − (− and + indicate the result is below and above the no significant effect threshold, respectively (<30% inhibition at a concentration of 1 μg/ml)) | − (− and + indicate the result is below and above the no significant effect threshold, respectively (<30% inhibition at a concentration of 1 μg/ml)) | 12 | –
2 | COc1ccc(-n2nc(C(C)(C)C)cc2NC(=O)Nc2ccc(Oc3ccnc4[nH]c(=O)[nH]c34)c3ncccc23)cc1 [Example 14, 1-(3-(tert-Butyl)-1-(4-methoxyphenyl)-1H-pyrazol-5-yl)-3-(8-((2-oxo-2,3-dihydro-1H-imidazo[4,5-b]pyridin-7-yl)oxy)quinolin-5-yl)urea] | 0.8 | 180 | < 2 | 726 | 5 | 163 | 675 | 8 | − (− and + indicate the result is below and above the no significant effect threshold, respectively (<30% inhibition at a concentration of 1 μg/ml)) | − (− and + indicate the result is below and above the no significant effect threshold, respectively (<30% inhibition at a concentration of 1 μg/ml)) | 166 | 1.5
3 | CCn1c(=O)[nH]c2nccc(Oc3ccc(NC(=O)Nc4cc(C(C)(C)C)nn4-c4ccc(OC)cc4)c4ccccc34)c21 [Example 11] | 9 | 348 | 5 | 1.6 | 2 | 4 | 3.6 | 60 | − (− and + indicate the result is below and above the no significant effect threshold, respectively (<30% inhibition at a concentration of 1 μg/ml)) | − (− and + indicate the result is below and above the no significant effect threshold, respectively (<30% inhibition at a concentration of 1 μg/ml)) | 0.7 | –
4 | CC(C)(C)c1cc(NC(=O)Nc2ccc(Oc3ccnc4[nH]c(=O)[nH]c34)c3ccccc23)n(-c2ccccc2)n1 [Example 2, 1-(3-tert-butyl-1-phenyl-1H-pyrazol-5-yl)-3-(4-(2-oxo-2,3-dihydro-1H-imidazo [4,5-b]pyridin-7-yloxy)naphthalen-1-yl) urea] | 36 | 67 | < 2 | 7.5 | 5 | 1.4 | 9.8 | 60 | − (− and + indicate the result is below and above the no significant effect threshold, respectively (<30% inhibition at a concentration of 1 μg/ml)) | − (− and + indicate the result is below and above the no significant effect threshold, respectively (<30% inhibition at a concentration of 1 μg/ml)) | 3 | 1
5 | Cc1nc2c(Oc3ccc(NC(=O)Nc4cc(C(C)(C)C)nn4-c4ccccc4)c4ccccc34)ccnc2[nH]c1=O [Example 7, 1-(3-(tert-butyl)-1-phenyl-1H-pyrazol-5-yl)-3-(4-((2-methyl-3-oxo-3,4-dihydropyrido[2,3-b]pyrazin-8-yl)oxy)naphthalen-1-yl)urea] | 7 | 100 | 3 | 4.2 | 3 | 7 | 3 | 60 | − (− and + indicate the result is below and above the no significant effect threshold, respectively (<30% inhibition at a concentration of 1 μg/ml)) | − (− and + indicate the result is below and above the no significant effect threshold, respectively (<30% inhibition at a concentration of 1 μg/ml)) | 1.7 | –
6 | CSc1ccc(-n2nc(C(C)(C)C)cc2NC(=O)Nc2ccc(Oc3ccnc4[nH]c(=O)cnc34)c3ccccc23)cc1 [Example 33, 1-(3-(tert-butyl)-1-(4-(methylthio)phenyl)-1H-pyrazol-5-yl)-3-(4-((3-oxo-3,4-dihydropyrido[2,3-b]pyrazin-8-yl)oxy)naphthalen-1-yl)urea] | 7 | 74 | 4 | 9.4 | 5 | 13 | 3.2 | 80 | − (− and + indicate the result is below and above the no significant effect threshold, respectively (<30% inhibition at a concentration of 1 μg/ml)) | − (− and + indicate the result is below and above the no significant effect threshold, respectively (<30% inhibition at a concentration of 1 μg/ml)) | 8.2 | –
